Test results from paper PMC2747590 (Chemical biology & drug design, 2009).
Read-outs that look alike come from different tables or passages of the source.

Assays:
[1] = test system: gelatinases; settings: cited from earlier work
[2] = Plasma levels in mice after single intraperitoneal dose; settings: female, BALB/c, mouse, in vivo, ip, 100 mg/kg
[3] = mouse, in vivo, ip
[4] = in vivo; settings: female, BALB/c, mouse, ip
[5] = 14-day repeated dose toxicity study in mice; settings: 5, 10 and 25 mg/kg/day i.p. for 14 days; normal behavior and food consumption
[6] = test system: metastasis; settings: 50 mg/kg/day; cited from earlier work
[7] = in vitro; settings: male, Sprague-Dawley, rat, microsomes, pH 7.4
[8] = mice, single intraperitoneal dose at the same dose level (100 mg/kg); cited from earlier work

O=S(=O)(CC1CS1)c1ccc(Oc2ccc(O)cc2)cc1 (stereo not drawn) [p-hydroxy variant]
gelatinase inhibitory activity relative to parent 1 [1]: more active gelatinase inhibitor than the parent 1

CS(=O)(=O)Oc1ccc(Oc2ccc(S(=O)(=O)CC3CS3)cc2)cc1 (stereo not drawn) [Compound 2, 4-(4-(Thiiranylmethylsulfonyl)phenoxy)-phenyl methanesulfonate]
concentration at 1 h [2]: 70.5 µM
Concentration of 2 at 1 h ([3]; female, BALB/c, 25 mg/kg/day, 1 h): 3.2 µM
Concentration of 2 at 1 h ([3]; 5 mg/kg/day): LOQ
Concentration of 2 at 1 h ([3]; 10 mg/kg/day): LOQ
concentration at 1 h ([4]; 5 mg/kg/day): < 1 µM
concentration at 1 h ([4]; 10 mg/kg/day): < 1 µM
concentration at 1 h ([4]; 25 mg/kg/day): 3.2 µM
toxicity upon multiple-dose administration [5]: No toxicity was observed

O=S(=O)(CC1CS1)c1ccc(Oc2ccccc2)cc1 (stereo not drawn) [Compound 1, (4-phenoxyphenylsulfonyl)methylthiirane]
efficacy in mouse models of metastasis [6]: has shown efficacy
remaining at 0.25 h, 25 μM [7]: 0.5%
plasma levels at 1 h [8]: < 1 µM
